67LR level and MMP-2 activity data for 1 substance are collected here from US10139394B2, “Method for controlling cancer metastasis or cancer cell migration by modulating the cellular level of lysyl tRNA synthetase” (Medicinal Bioconvergence Research Center, priority 2008, dated 2018).

The subject of one test is 67LR. As to the kind of experiment: 67LR level in membrane and cytoplasm of A549 cells (Western blotting, flow cytometry). The format is cell-based. The note with it: membrane fraction, FIG. 13. On the procedure:
In FIG. 13, A549 cells were transfected with si-control or si-KRS and incubated in the absence and presence of laminin. The cells were then separated to cytoplasm and membrane fractions, and the levels of 67LR and KRS in each fraction were determined by Western blotting. Cadherin (cad) and hsp90 were used as the markers for plasma membrane and cytoplasm, respectively. In FIG. 14, the membrane-bound 67LR level in A549 cells was monitored by flow cytometry using anti-LR antibody (MLuC5). The cells were transfected with empty vector or KRS plasmid and incubated for 24 h (upper). […] In FIG. 15, A549 cells transfected with EV or KRS was selected with G418 for a week and cellular distribution of 67LR was determined by immunofluorescence staining with anti-LR antibody (MLuC5). […] In FIG. 16, A549 cells were treated with cycloheximide to inhibit de novo protein synthesis and the effect of KRS levels on 67LR level in membrane and cytoplasm was determined by Western blotting. In FIG. 17, the importance of KRS for cellular stability of 67LR was determined by pulse-chase experiment. […]
To address cell cycle, the cultivated cells were transfected or treated with the indicated vector or chemicals, fixed with 70% ethanol for 1 hr at 4° C. and washed with ice-cold PBS two times. […] For each sample, 20,000 cells were analyzed using Cell Quest Pro software. […]
(In general: In western blotting, separated proteins are transferred to a membrane and probed.)

In the next test the test system is MMP-2. As to the kind of experiment: MMP-2 zymography. The class given is cell-based. The note with it: A549 cells; laminin 10 μg/ml 24 hr; FIG. 19. On the procedure: In FIG. 18, A549 cells were transfected with the indicated plasmids, incubated in the absence and presence of laminin and their effect on cell migration was determined by measuring the migrated cells in transwell chamber as described. The numbers of the cells passed through the membrane were counted and shown in each panel. The experiments were performed three times. In FIG. 19, the cells treated as above were used to determine MMP-2 activity and level by zymography and Western blotting, respectively. In FIG. 20, Breast carcinoma 4T-1 cells were transfected with the indicated siRNA and subcutaneously injected to the back of Balb/C mice. After 21 days, mouse lungs were isolated and tumor nodules over 1 mm in diameter were counted. In FIG. 21, two different 4T-1 cells stably expressing exogenously introduced KRS (KRS-1 and -2) were also inoculated as above and the tumor nodules were counted 30 days after injection. 4T-1 cells with empty vector were used as control. In FIG. 22, expression levels of KRS and 67LR in lung (upper) and breast (lower) cancer tissues were compared by immunohistochemical staining with their respective antibodies. 39 lung and 40 breast cancer tissues were subjected to immunohistochemical staining with anti-KRS and anti-67LR antibodies and their expression levels were compared with those in normal tissues (9 samples for each tissue). […]

With “laminin: laminin (Engelbreth-Holm-Swarm murine sarcoma) from Sigma”, in the test with 67LR, the 67LR level entry is recorded as “increased”. The MMP-2 activity result in the test on MMP-2 was “enhanced”.
